Reference: PubChem BioAssay AID248 (DTP/NCI, 2004)
Where “and” joins values, the source holds several entries; their conditions need not be identical. Equal values may be shown once. Toxic doses and inconclusive results are not listed. No stated cut-off is given here; in the data, active means T/C of 150% or more; inactive means T/C below 125%. Numbered stars: 1 amine (or outer) side, 2 acyl side, 3 side chain; on linkers, the order of the positions; unused ones are H or OH. Bridge positions count the residues as written; N and C are the ends. Square brackets hold non-standard residues; d marks the D form. Peptide text beside a SMILES is read from it. I, II: the chains in the order shown. Actinocin(1to9) = Cc1c2oc3c(C)ccc(C(=O)[*:2])c3nc-2c(C(=O)[*:1])c(N)c1=O; X5 = O=C1CC(C(=O)[*:2])N([*:1])C1; NMeV = CN[CH](C(=O)O)C(C)C; Sar = CNCC(=O)O

Tested on: L1210 leukemia ip in BDF1 mice, survival T/C
Experiment: NCI In Vivo Anticancer Drug Screen. Data for tumor model L1210 Leukemia (intraperitoneal) in B6D2F1 (BDF1) mice
Settings: higher = longer survival
Outline: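 Transplanted-tumor mice were given test agent; controls received vehicle only. Survival readings from the two groups were divided (treated over control).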

[1] = endpoint: mean survival time, dose: 50.0 mg/kg/injection, schedule: Q01DX001 (ip), vehicle: carboxymethylcellulose (CMC)
[2] = endpoint: mean survival time, dose: 100.0 mg/kg/injection, schedule: Q01DX001 (ip), vehicle: carboxymethylcellulose (CMC)
[3] = endpoint: mean survival time, dose: 100.0 mg/kg/injection, schedule: Q04DX003 (ip), vehicle: saline with Tween-80
[4] = endpoint: mean survival time, dose: 200.0 mg/kg/injection, schedule: Q01DX001 (ip), vehicle: carboxymethylcellulose (CMC)
[5] = endpoint: mean survival time, dose: 200.0 mg/kg/injection, schedule: Q04DX003 (ip), vehicle: saline with Tween-80
[6] = endpoint: mean survival time, dose: 400.0 mg/kg/injection, schedule: Q01DX001 (ip), vehicle: carboxymethylcellulose (CMC)
[7] = endpoint: mean survival time, dose: 100.0 mg/kg/injection, schedule: Q01DX009 (ip), vehicle: Klucel (hydroxypropylcellulose) (HPC)
[8] = endpoint: mean survival time, dose: 200.0 mg/kg/injection, schedule: Q01DX009 (ip), vehicle: Klucel (hydroxypropylcellulose) (HPC)
[9] = endpoint: mean survival time, dose: 400.0 mg/kg/injection, schedule: Q01DX009 (ip), vehicle: Klucel (hydroxypropylcellulose) (HPC)

Measured: T/C

Cc1c2oc3c(C)ccc(C(=O)NC4C(=O)NC(C(C)C)C(=O)N5CCCC5C(=O)N(C)CC(=O)N(C)C(C(C)C)C(=O)OC4C)c3nc-2c(C(=O)NC2C(=O)NC(C(C)C)C(=O)N3CC(=O)CC3C(=O)N(C)CC(=O)N(C)C(C(C)C)C(=O)OC2C)c(N)c1=O (configuration not stated) (I: TV[X5][Sar][NMeV] / II: TVP[Sar][NMeV]; ester I:1-I:C, II:1-II:C; linker I:N-II:N via Actinocin(1to9); configuration not given here)
inactive: endpoint: median survival time, dose: 3.1 micrograms/kg/injection, schedule: Q01DX009 (ip), vehicle: water 108 % of control | endpoint: median survival time, dose: 6.2 micrograms/kg/injection, schedule: Q01DX009 (ip), vehicle: water 120 % of control | endpoint: median survival time, dose: 12.5 micrograms/kg/injection, schedule: Q01DX009 (ip), vehicle: water 116 % of control | endpoint: median survival time, dose: 18.7 micrograms/kg/injection, schedule: Q04DX003 (ip), vehicle: water 108 % of control | endpoint: median survival time, dose: 25.0 micrograms/kg/injection, schedule: Q01DX009 (ip), vehicle: water 108 % of control | endpoint: median survival time, dose: 37.5 micrograms/kg/injection, schedule: Q04DX003 (ip), vehicle: water 113 % of control

O=C(C(=O)c1ccc(Cl)cc1)c1ccc(Cl)cc1
inactive: endpoint: mean survival time, dose: 1.56 mg/kg/injection, schedule: Q01DX009 (ip), vehicle: other 106 % of control | endpoint: mean survival time, dose: 3.13 mg/kg/injection, schedule: Q01DX009 (ip), vehicle: other 95 % of control | endpoint: mean survival time, dose: 6.25 mg/kg/injection, schedule: Q01DX009 (ip), vehicle: other 97 % of control and 92 % of control | endpoint: mean survival time, dose: 25.0 mg/kg/injection, schedule: Q01DX009 (ip), vehicle: other 88 % of control | [1] 94 % of control | [2] 94 % of control | [3] 86 % of control | [4] 89 % of control | [5] 88 % of control | [6] 92 % of control | endpoint: mean survival time, dose: 400.0 mg/kg/injection, schedule: Q04DX003 (ip), vehicle: saline with Tween-80 88 % of control

CCOC(=O)c1ccc(NC(=O)Oc2ccccc2F)cc1
inactive: [7] 91 % of control | [8] 98 % of control | [9] 96 % of control

c1ccc2c(c1)c1c(c3ccccc32)CN2CCCC2C1 (configuration not stated)
inactive: [1] 105 % of control | [2] 105 % of control | [4] 92 % of control | [6] 103 % of control

Cc1cccc(Cl)c1NC1=NCCO1
inactive: endpoint: mean survival time, dose: 6.25 mg/kg/injection, schedule: Q01DX009 (ip), vehicle: saline with Tween-80 93 % of control | endpoint: mean survival time, dose: 12.5 mg/kg/injection, schedule: Q01DX009 (ip), vehicle: saline with Tween-80 102 % of control | endpoint: mean survival time, dose: 25.0 mg/kg/injection, schedule: Q01DX009 (ip), vehicle: saline with Tween-80 100 % of control

COC(=O)C1=C(C(=O)OC)C2(OC(C)=O)C=C(OC(C)=O)C1C(C)(C)C2 (configuration not stated)
inactive: endpoint: mean survival time, dose: 100.0 mg/kg/injection, schedule: Q01DX001 (ip), vehicle: saline 94 % of control | endpoint: mean survival time, dose: 100.0 mg/kg/injection, schedule: Q01DX009 (ip), vehicle: acetone 93 % of control | endpoint: mean survival time, dose: 100.0 mg/kg/injection, schedule: Q04DX003 (ip), vehicle: saline 111 % of control | endpoint: mean survival time, dose: 200.0 mg/kg/injection, schedule: Q01DX001 (ip), vehicle: saline 102 % of control | endpoint: mean survival time, dose: 200.0 mg/kg/injection, schedule: Q01DX009 (ip), vehicle: acetone 90 % of control | endpoint: mean survival time, dose: 200.0 mg/kg/injection, schedule: Q04DX003 (ip), vehicle: saline 103 % of control | endpoint: mean survival time, dose: 400.0 mg/kg/injection, schedule: Q01DX001 (ip), vehicle: saline 102 % of control | endpoint: mean survival time, dose: 400.0 mg/kg/injection, schedule: Q01DX009 (ip), vehicle: acetone 88 % of control | endpoint: mean survival time, dose: 400.0 mg/kg/injection, schedule: Q04DX003 (ip), vehicle: saline 104 % of control

Cc1cc2oc(=O)cc(N3CCOCC3)c2c(=O)o1
inactive: endpoint: mean survival time, dose: 100.0 mg/kg/injection, schedule: Q01DX009 (ip), vehicle: saline with Tween-80 117 % of control | endpoint: mean survival time, dose: 200.0 mg/kg/injection, schedule: Q01DX009 (ip), vehicle: saline with Tween-80 114 % of control

O=C(O)COc1ccc(C(=O)c2cc(Br)ccc2OCC(=O)O)cc1
inactive: [2] 105 % of control | [4] 98 % of control | [6] 103 % of control

CS(=O)(=O)OCCC(COS(C)(=O)=O)S(=O)(=O)Cc1ccccc1 (configuration not stated)
inactive: endpoint: mean survival time, dose: 15.0 mg/kg/injection, schedule: Q01DX001 (ip), vehicle: saline 101 % of control | endpoint: mean survival time, dose: 30.0 mg/kg/injection, schedule: Q01DX001 (ip), vehicle: saline 104 % of control

O=C(O)c1ccc(OCCOc2ccc([N+](=O)[O-])cc2)c(Cl)c1
inactive: [2] 95 % of control and 105 % of control | endpoint: mean survival time, dose: 100.0 mg/kg/injection, schedule: Q01DX009 (ip), vehicle: carboxymethylcellulose (CMC) 92 % of control and 89 % of control | endpoint: mean survival time, dose: 100.0 mg/kg/injection, schedule: Q04DX002 (ip), vehicle: gum acacia 101 % of control | endpoint: mean survival time, dose: 100.0 mg/kg/injection, schedule: Q04DX003 (ip), vehicle: carboxymethylcellulose (CMC) 95 % of control and 86 % of control | [4] 101 % of control and 103 % of control | endpoint: mean survival time, dose: 200.0 mg/kg/injection, schedule: Q01DX009 (ip), vehicle: carboxymethylcellulose (CMC) 93 % of control and 100 % of control | endpoint: mean survival time, dose: 200.0 mg/kg/injection, schedule: Q04DX002 (ip), vehicle: gum acacia 98 % of control and 99 % of control | endpoint: mean survival time, dose: 200.0 mg/kg/injection, schedule: Q04DX003 (ip), vehicle: carboxymethylcellulose (CMC) 95 % of control and 90 % of control | [6] 100 % of control | endpoint: mean survival time, dose: 400.0 mg/kg/injection, schedule: Q04DX002 (ip), vehicle: gum acacia 94 % of control and 98 % of control | endpoint: mean survival time, dose: 400.0 mg/kg/injection, schedule: Q04DX003 (ip), vehicle: carboxymethylcellulose (CMC) 90 % of control and 91 % of control

CN(C)c1ccc(O)c2c1CC1CC3C(N(C)C)C(=O)C(C(N)=O)=C(O)C3(O)C(=O)C1=C2O (configuration not stated)
inactive: [3] 100 % of control | [5] 108 % of control

CCOC(=O)Nc1cc([N+](=O)[O-])ccc1OC
inactive: endpoint: mean survival time, dose: 100.0 mg/kg/injection, schedule: Q01DX001 (ip), vehicle: Klucel (hydroxypropylcellulose) (HPC) 105 % of control | [7] 105 % of control | endpoint: mean survival time, dose: 100.0 mg/kg/injection, schedule: Q04DX002 (ip), vehicle: Klucel (hydroxypropylcellulose) (HPC) 96 % of control and 104 % of control | endpoint: mean survival time, dose: 100.0 mg/kg/injection, schedule: Q04DX003 (ip), vehicle: Klucel (hydroxypropylcellulose) (HPC) 101 % of control | endpoint: mean survival time, dose: 200.0 mg/kg/injection, schedule: Q01DX001 (ip), vehicle: Klucel (hydroxypropylcellulose) (HPC) 100 % of control | [8] 108 % of control | endpoint: mean survival time, dose: 200.0 mg/kg/injection, schedule: Q04DX002 (ip), vehicle: Klucel (hydroxypropylcellulose) (HPC) 96 % of control and 97 % of control | endpoint: mean survival time, dose: 200.0 mg/kg/injection, schedule: Q04DX003 (ip), vehicle: Klucel (hydroxypropylcellulose) (HPC) 98 % of control | endpoint: mean survival time, dose: 400.0 mg/kg/injection, schedule: Q01DX001 (ip), vehicle: Klucel (hydroxypropylcellulose) (HPC) 101 % of control | [9] 102 % of control | endpoint: mean survival time, dose: 400.0 mg/kg/injection, schedule: Q04DX002 (ip), vehicle: Klucel (hydroxypropylcellulose) (HPC) 96 % of control and 103 % of control | endpoint: mean survival time, dose: 400.0 mg/kg/injection, schedule: Q04DX003 (ip), vehicle: Klucel (hydroxypropylcellulose) (HPC) 101 % of control

NC(CC[Se]CC(N)C(=O)O)C(=O)O (configuration not stated)
inactive: endpoint: mean survival time, dose: 0.5 mg/kg/injection, schedule: Q01DX009 (ip), vehicle: acetone 110 % of control | endpoint: mean survival time, dose: 1.0 mg/kg/injection, schedule: Q01DX009 (ip), vehicle: acetone 103 % of control | endpoint: mean survival time, dose: 2.0 mg/kg/injection, schedule: Q01DX009 (ip), vehicle: acetone 95 % of control | endpoint: mean survival time, dose: 4.0 mg/kg/injection, schedule: Q01DX009 (ip), vehicle: acetone 108 % of control
